Assay results: US8258158B2 (Hoffmann-La Roche Inc., priority 2009, dated 2012)

Target: T1, human HSL (Homo sapiens, UniProt Q05469)
T1 construct: overlapping PCR to generate a full length human HSL ORF with a 3′-His6 tag; His6 (C); made in house; host or cells: High 5 insect cells (baculovirus, pFast-BAC)
T1 sequence (Q05469 1-1076): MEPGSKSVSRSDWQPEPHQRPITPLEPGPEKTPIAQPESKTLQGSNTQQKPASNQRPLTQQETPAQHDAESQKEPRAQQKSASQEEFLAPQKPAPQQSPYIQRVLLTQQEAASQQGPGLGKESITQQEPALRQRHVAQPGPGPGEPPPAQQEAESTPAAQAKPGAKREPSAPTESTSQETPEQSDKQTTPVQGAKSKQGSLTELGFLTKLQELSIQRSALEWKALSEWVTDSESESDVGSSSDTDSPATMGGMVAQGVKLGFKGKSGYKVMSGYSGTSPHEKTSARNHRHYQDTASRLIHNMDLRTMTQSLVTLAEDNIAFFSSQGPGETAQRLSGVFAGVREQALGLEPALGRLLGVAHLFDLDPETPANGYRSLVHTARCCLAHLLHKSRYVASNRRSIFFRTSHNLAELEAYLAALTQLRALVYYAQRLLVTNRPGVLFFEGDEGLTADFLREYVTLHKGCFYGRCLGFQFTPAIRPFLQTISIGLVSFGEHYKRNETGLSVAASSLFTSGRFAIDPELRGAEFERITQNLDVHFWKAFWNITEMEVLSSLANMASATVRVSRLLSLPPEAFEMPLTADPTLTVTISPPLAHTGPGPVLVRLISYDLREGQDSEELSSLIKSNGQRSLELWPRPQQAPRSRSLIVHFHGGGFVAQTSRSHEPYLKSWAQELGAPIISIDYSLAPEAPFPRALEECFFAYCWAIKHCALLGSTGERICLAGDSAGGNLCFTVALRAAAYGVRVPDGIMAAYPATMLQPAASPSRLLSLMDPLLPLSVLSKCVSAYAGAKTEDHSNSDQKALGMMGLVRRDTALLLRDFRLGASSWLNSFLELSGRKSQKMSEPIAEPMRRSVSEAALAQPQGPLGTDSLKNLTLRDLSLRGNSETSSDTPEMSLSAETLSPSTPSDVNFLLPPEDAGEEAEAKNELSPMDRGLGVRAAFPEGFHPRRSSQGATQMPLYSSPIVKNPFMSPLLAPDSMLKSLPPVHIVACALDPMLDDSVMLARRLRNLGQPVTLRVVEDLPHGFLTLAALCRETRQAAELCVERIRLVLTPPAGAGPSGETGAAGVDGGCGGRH
Experiment: Human hormone-sensitive lipase (HSL) enzyme inhibition assay (colorimetric, DMPT substrate)
Assay type: biochemical
Details: human full length HSL-His6; 2,3-dimercapto-1-propanol tributyrate substrate; 37° C., 20 minutes; read-out: HSL hum IC50
Method in brief: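 Full-length human HSL with C-terminal His6, expressed in baculovirus/High 5 cells and Ni-NTA purified, was added from a 15 µg/ml solution to 1.5 mM DMPT in 100 mM MOPS pH 7.2, 0.2 mg/ml fatty acid-free BSA. After 20 min at 37 °C, DTNB with SDS/Triton X-100 was added, 15 min RT, and A405 read.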

SMILES | IC50
Cc1ccc(S(=O)(=O)N2CCC(CO)(C(=O)Nc3ccc(OC(C)C(F)(F)F)cc3)CC2)cc1 (racemic) [Example 55, (rac)-4-Hydroxymethyl-1-(toluene-4-sulfonyl)-piperidine-4-carboxylic acid [4-(2,2,2-trifluoro-1-methyl-ethoxy)-phenyl]-amide] | 1420 nM
CC1(C(=O)Nc2ccc(OC(F)(F)F)cc2)CCN(S(=O)(=O)c2ccccc2)CC1 [Example 57, 1-Benzenesulfonyl-4-methyl-piperidine-4-carboxylic acid (4-trifluoromethoxy-phenyl)-amide] | 250 nM
CC(C)c1ccc(NC(=O)C2CCN(C(=O)CC(C)(C)C)CC2)cc1 [Example 10] | 200 nM
CC(C)c1ccc(NC(=O)C2CCN(C(=O)CC3CC3)CC2)cc1 [Example 8, 1-(2-Cyclopropyl-acetyl)-piperidine-4-carboxylic acid (4-isopropyl-phenyl)-amide] | 800 nM
Cc1ccc(S(=O)(=O)N2CC[C@H](C(=O)Nc3ccc(OC(F)(F)F)cc3)C[C@H]2CO)cc1 (racemic) [Example 42, (2S,4S)-2-Hydroxymethyl-1-(toluene-4-sulfonyl)-piperidine-4-carboxylic acid (4-trifluoromethoxy-phenyl)-amide and (2R,4R)-2-Hydroxymethyl-1-(toluene-4-sulfonyl)-piperidine-4-carboxylic acid (4-trifluoromethoxy-phenyl)-amide] | 40 nM
Cc1ccc(S(=O)(=O)N2CCC(F)(C(=O)Nc3ccc(OC(F)(F)F)cc3)CC2)cc1 [Example 18, 4-Fluoro-1-(toluene-4-sulfonyl)-piperidine-4-carboxylic acid (4-trifluoromethoxy-phenyl)-amide] | 550 nM

More lines, now with the values ahead:

IC50 | SMILES
90 nM | COc1ccc(S(=O)(=O)N2CCC(C(=O)Nc3ccc(OC(C)C)cc3)CC2)cc1 [Example 49, 1-(4-Methoxy-benzenesulfonyl)-piperidine-4-carboxylic acid (4-isopropoxy-phenyl)-amide]
770 nM | Cc1ccc(S(=O)(=O)N2CCC(C(=O)Nc3ccc4c(c3)CCO4)CC2)cc1 [Example 17, 1-(Toluene-4-sulfonyl)-piperidine-4-carboxylic acid (2,3-dihydro-benzofuran-5-yl)-amide]
120 nM | Cc1ccc(S(=O)(=O)N2CCC(C(=O)Nc3ccc(OC(F)F)cc3)CC2)cc1 [Example 13, 1-(Toluene-4-sulfonyl)-piperidine-4-carboxylic acid (4-difluoromethoxy-phenyl)-amide]
